# Results reported in patent US8436043B2 (Takeda Pharmaceutical Company Limited, priority 2008, dated 2013).
# Key:
# [1] = biological target: T1, human glucagon receptor (Homo sapiens, UniProt P47871); experiment: Glucagon binding inhibitory activity ([125I]-glucagon binding to glucagon receptor membrane protein); details: for IC50: human glucagon receptor membrane protein, [125I]-glucagon, 90 min room temperature; for inhibition at 10 µM: read-out: inhibitory rate (%) at 10 μM
# T1 construct: made in house; host or cells: FreeStyle CHO cells, transient transfection with pMSRαneo/hGCGR; membrane fraction (35,000 rpm pellet)
# Procedure, shortened: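 Receptor source was a membrane fraction of transiently transfected CHO cells bearing human receptor; 90 min room-temperature binding, filtration harvest, scintillation counting.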
# [2] = tested on: glucagon-induced blood glucose increase; experiment: Suppressive action test for glucagon-induced blood glucose increase (rat); assay type: in vivo; details: SD rats male, 10 mg/kg oral, glucagon 15 μg/kg s.c. 60 min later, blood glucose 20 min after glucagon
# Procedure: Suppressive Action Test for Glucagon-Induced Blood Glucose Increase (Rat)
# Full feeding SD rats (male, 7- to 9-week-old) were fasted, 0.5% methylcellulose suspension containing a test compound (10 mg/kg body weight) (compound administration group, 5 rats per group) or 0.5% methylcellulose suspension (compound non-administration group, 12 rats, per group) was orally administered, and 60 min later, glucagon (15 μg/kg body weight, Novo Nordisk Pharma Ltd.) was subcutaneously administered. At 20 min from the glucagon administration, blood samples were collected from the rat tail vein and the blood glucose was measured using a self-testing glucose kit ACCU-CHEK (Roche Diagnostics K.K.). In addition, as a non-treatment group (5 rats per group), the blood glucose of rat (compound non-treatment group) free of glucagon administration was measured in the same manner as above.
# The difference between the blood glucose of compound non-administration group or compound administration group and the blood glucose of non-treatment group was calculated. The percentage of “the difference between blood glucose of compound administration group and blood glucose of non-treatment group” was obtained as “blood glucose increase rate (% of control)” where “the difference between blood glucose of compound non-administration group and that of non-treatment group” is 100%.
# [3] = test compound 10 μM, 0.4% DMSO = 0%, non-labeled glucagon 1 μM = 100%
# T1 sequence (P47871 26-477): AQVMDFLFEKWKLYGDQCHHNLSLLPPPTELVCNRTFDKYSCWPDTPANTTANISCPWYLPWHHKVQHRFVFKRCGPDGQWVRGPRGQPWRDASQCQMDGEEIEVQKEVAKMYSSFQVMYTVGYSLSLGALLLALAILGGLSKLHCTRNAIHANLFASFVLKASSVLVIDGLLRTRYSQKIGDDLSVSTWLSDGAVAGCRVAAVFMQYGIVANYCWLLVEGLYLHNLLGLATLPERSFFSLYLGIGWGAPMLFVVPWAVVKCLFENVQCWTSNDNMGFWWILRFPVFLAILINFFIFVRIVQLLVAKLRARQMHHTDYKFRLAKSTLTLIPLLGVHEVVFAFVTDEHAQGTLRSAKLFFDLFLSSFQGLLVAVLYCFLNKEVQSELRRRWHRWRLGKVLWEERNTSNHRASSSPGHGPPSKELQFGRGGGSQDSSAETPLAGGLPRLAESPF
IC50 [1] [nM],"inhibition at 10 µM [1, 3] [%]","inhibitory rate (%) at 10 μM [1, 3] [%]",SMILES,blood glucose increasing rate (% of control) [2]
570,83,–,"Cc1c(C(Nc2ccc(C(=O)N(C)CCC(=O)O)cn2)C2CCCCC2)oc2ccc(F)cc12 (single isomer, unassigned) [Example A53, 3-{[(6-{[cyclohexyl(5-fluoro-3-methyl-1-benzofuran-2-yl)methyl]amino}pyridin-3-yl)carbonyl](methyl)amino}propanoic acid]",27.4 % of control
–,–,86,Cc1c(C(Nc2ccc(C(=O)N(C)CCC(=O)O)cc2)C2CCCCC2)oc2ccccc12 (stereo not shown) [Example A41],16.6 % of control
900,87,–,"CCC(CC)C(Nc1ccc(C(=O)N(C)CCC(=O)O)cc1)c1oc2ccc(F)cc2c1C (single isomer, unassigned) [Example A73, 3-{[(4-{[2-ethyl-1-(5-fluoro-3-methyl-1-benzofuran-2-yl)butyl]amino}phenyl)carbonyl](methyl)amino}propanoic acid]",24.2 % of control
–,72,–,"COc1cccc2cc(C(Nc3ccc(C(=O)NCCC(=O)O)cc3)C3CCCCC3)oc12 (stereo not shown) [Example A20, 3-{[(4-{[cyclohexyl(7-methoxy-1-benzofuran-2-yl)methyl]amino}phenyl)carbonyl]amino}propanoic acid]",–
410,75,–,"CC(C)c1nn(-c2ccc(C(F)(F)F)cn2)cc1C(Nc1ccc(C(=O)N(C)CCC(=O)O)cc1)C1CCCCC1 (stereo not shown) [Example 8, 3-[({4-[(cyclohexyl{3-(1-methylethyl)-1-[5-(trifluoromethyl)pyridin-2-yl]-1H-pyrazol-4-yl}methyl)amino]phenyl}carbonyl)(methyl)amino]propanoic acid]",–
–,71,–,"CN(CCC(=O)O)C(=O)c1ccc(NC(c2cn(-c3ccc(C(F)(F)F)cn3)nc2C(C)(C)C)C2CCCCC2)cc1 (stereo not shown) [Example 14, 3-{[(4-{[{3-tert-butyl-1-[5-(trifluoromethyl)pyridin-2-yl]-1H-pyrazol-4-yl}(cyclohexyl)methyl]amino}phenyl)carbonyl](methyl)amino}-propanoic acid]",–
–,86,–,"Cc1c(C(Nc2ccc(C(=O)NCCC(=O)O)cc2)C(C)C)oc2ccc(OCc3ccccc3)cc12 (stereo not shown) [Example A171, 3-({[4-({1-[5-(benzyloxy)-3-methyl-1-benzofuran-2-yl]-2-methylpropyl}amino)phenyl]carbonyl}amino)propanoic acid]",–
–,79,–,"CCC(CC)C(Nc1ccc(C(=O)N(C)CCC(=O)O)cc1)c1oc2ccc(F)cc2c1C (stereo not shown) [Example A72, 3-{[(4-{[2-ethyl-1-(5-fluoro-3-methyl-1-benzofuran-2-yl)butyl]amino}phenyl)carbonyl](methyl)amino}propanoic acid]",–
–,63,–,"CCc1nn(-c2ccc(OC)cc2)cc1C(CC(C)C)Nc1ccc(C(=O)NCCC(=O)O)cc1 (stereo not shown) [Example 48, 3-({[4-({1-[3-ethyl-1-(4-methoxyphenyl)-1H-pyrazol-4-yl]-3-methylbutyl}amino)phenyl]carbonyl}amino)propanoic acid]",–
–,64,–,"CCc1nn(-c2cc(F)cc(F)c2)cc1C(Nc1ccc(C(=O)N(C)CCC(=O)O)cc1)C1CCCCC1 (stereo not shown) [Example 87, 3-[{[4-({cyclohexyl[1-(3,5-difluorophenyl)-3-ethyl-1H-pyrazol-4-yl]methyl}amino)phenyl]carbonyl}(methyl)amino]propanoic acid]",–
84,93,–,"Cc1c(C(Nc2ccc(C(=O)N(C)CCC(=O)O)cc2)C2CCCCC2)oc2ccc(OC3CCOCC3)cc12 (single isomer, unassigned) [Example A83, 3-[{[4-({cyclohexyl[3-methyl-5-(tetrahydro-2H-pyran-4-yloxy)-1-benzofuran-2-yl]methyl}amino)phenyl]carbonyl}(methyl)amino]propanoic acid]",43.0 % of control
640,86,–,"COCc1c(C(Nc2ccc(C(=O)N(C)CCC(=O)O)cc2)C2CCCCC2)oc2ccc(F)cc12 (single isomer, unassigned) [Example A49, 3-[{[4-({cyclohexyl[5-fluoro-3-(methoxymethyl)-1-benzofuran-2-yl]methyl}amino)phenyl]carbonyl}(methyl)amino]propanoic acid]",–
–,72,–,"Cc1nn(-c2ccccc2)cc1C(Nc1ccc(C(=O)N(C)CCC(=O)O)cc1)C1CCCCC1 (stereo not shown) [Example 18, 3-{[(4-{[cyclohexyl(3-methyl-1-phenyl-1H-pyrazol-4-yl)methyl]amino}phenyl)carbonyl](methyl)amino}propanoic acid]",–
–,95,–,"COc1ccc(-c2ccc3oc(C(Nc4ccc(C(=O)N(C)CCC(=O)O)cc4)C(C)C)c(C)c3c2)cn1 (stereo not shown) [Example A182, 3-[{[4-({1-[5-(6-methoxypyridin-3-yl)-3-methyl-1-benzofuran-2-yl]-2-methylpropyl}amino)phenyl]carbonyl}(methyl)amino]propanoic acid]",–
–,51,–,"COCCCCC(Nc1ccc(C(=O)N(C)CCC(=O)O)cc1)c1oc2ccc(OC)cc2c1C (stereo not shown) [Example A124, 3-{[(4-{[5-methoxy-1-(5-methoxy-3-methyl-1-benzofuran-2-yl)pentyl]amino}phenyl)carbonyl](methyl)amino}propanoic acid]",–
–,94,–,"CSCCOc1ccc2oc(C(Nc3ccc(C(=O)NCCC(=O)O)cc3)C3CCCCC3)c(C)c2c1 (stereo not shown) [Example A148, 3-[({4-[(cyclohexyl{3-methyl-5-[2-(methylthio)ethoxy]-1-benzofuran-2-yl}methyl)amino]phenyl}carbonyl)amino]propanoic acid]",–
–,85,–,"Cc1c(C(Nc2ccc(C(=O)NCCC(=O)O)cc2)C2CCCCC2)oc2cccnc12 (stereo not shown) [Example A112, 3-{[(4-{[cyclohexyl(3-methylfuro[3,2-b]pyridin-2-yl)methyl]amino}phenyl)carbonyl]amino}propanoic acid]",–
–,71,–,"COc1ccc(-n2cc(C(Nc3ccc(C(=O)NCCC(=O)O)cc3)C3CCCCC3)c(C)n2)cc1 (stereo not shown) [Example 23, 3-({[4-({cyclohexyl[1-(4-methoxyphenyl)-3-methyl-1H-pyrazol-4-yl]methyl}amino)phenyl]carbonyl}amino)propanoic acid]",–
–,74,–,"Cc1c(C(Nc2ccc(C(=O)N(C)CCC(=O)O)cc2)C2CCCCC2)oc2ccccc12 (stereo not shown) [Example A16, 3-{[(4-{[cyclohexyl(3-methyl-1-benzofuran-2-yl)methyl]amino}phenyl)carbonyl](methyl)amino}propanoic acid]",–
–,90,–,"Cc1c(C(Nc2ccc(C(=O)N(C)CCC(=O)O)cc2)C2CCCCC2)oc2ccc(OCC3CCCO3)cc12 (stereo not shown) [Example A209, 3-[{[4-({cyclohexyl[3-methyl-5-(tetrahydrofuran-2-ylmethoxy)-1-benzofuran-2-yl]methyl}amino)phenyl]carbonyl}(methyl)amino]propanoic acid]",–
–,87,–,"Cc1c(C(Nc2ccc(C(=O)N(C)CCC(=O)O)cc2)C2CCCCC2)oc2ccc(Oc3ncccc3C#N)cc12 (stereo not shown) [Example A198, 3-{[(4-{[{5-[(3-cyanopyridin-2-yl)oxy]-3-methyl-1-benzofuran-2-yl}(cyclohexyl)methyl]amino}phenyl)carbonyl](methyl)amino}-propanoic acid]",–
–,72,–,"COc1nn(-c2ccc(OC(F)(F)F)cc2)cc1C(Nc1ccc(C(=O)N(C)CCC(=O)O)cc1)C1CCCCC1 (stereo not shown) [Example 63, 3-[({4-[(cyclohexyl{3-methoxy-1-[4-(trifluoromethoxy)phenyl]-1H-pyrazol-4-yl}methyl)amino]phenyl}carbonyl)(methyl)amino]propanoic acid]",–
